# Assay results: patent US20240092758A1, “IMIDAZOLO INDAZOLE COMPOUNDS AS JAK INHIBITORS” (Theravance Biopharma R&D IP, LLC, priority 2021, published 2024)
# Columns and labels:
# [1] = molecular target: JAK1 (Homo sapiens (Human), UniProt P23458); assay: Biochemical JAK kinase assay (LanthaScreen), JAK1; conditions: for Ki: read-out: JAK1 pKi (converted)
# Method in brief: (§1)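 LanthaScreen format: phospho-STAT1 (pTyr701) detected with 2 nM Tb antibody after 10 mM EDTA quench. Kinase step used Km-level ATP and 200 nM STAT1 peptide, 1 h at ambient after 1 h pre-incubation. Inhibition fitted to IC50, reported as pKi.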
# [2] = molecular target: JAK2 (Homo sapiens (Human), UniProt O60674); assay: Biochemical JAK kinase assay (LanthaScreen), JAK2; conditions: for Ki: read-out: JAK2 pKi (converted)
# Chain of JAK2 (O60674 whole entry): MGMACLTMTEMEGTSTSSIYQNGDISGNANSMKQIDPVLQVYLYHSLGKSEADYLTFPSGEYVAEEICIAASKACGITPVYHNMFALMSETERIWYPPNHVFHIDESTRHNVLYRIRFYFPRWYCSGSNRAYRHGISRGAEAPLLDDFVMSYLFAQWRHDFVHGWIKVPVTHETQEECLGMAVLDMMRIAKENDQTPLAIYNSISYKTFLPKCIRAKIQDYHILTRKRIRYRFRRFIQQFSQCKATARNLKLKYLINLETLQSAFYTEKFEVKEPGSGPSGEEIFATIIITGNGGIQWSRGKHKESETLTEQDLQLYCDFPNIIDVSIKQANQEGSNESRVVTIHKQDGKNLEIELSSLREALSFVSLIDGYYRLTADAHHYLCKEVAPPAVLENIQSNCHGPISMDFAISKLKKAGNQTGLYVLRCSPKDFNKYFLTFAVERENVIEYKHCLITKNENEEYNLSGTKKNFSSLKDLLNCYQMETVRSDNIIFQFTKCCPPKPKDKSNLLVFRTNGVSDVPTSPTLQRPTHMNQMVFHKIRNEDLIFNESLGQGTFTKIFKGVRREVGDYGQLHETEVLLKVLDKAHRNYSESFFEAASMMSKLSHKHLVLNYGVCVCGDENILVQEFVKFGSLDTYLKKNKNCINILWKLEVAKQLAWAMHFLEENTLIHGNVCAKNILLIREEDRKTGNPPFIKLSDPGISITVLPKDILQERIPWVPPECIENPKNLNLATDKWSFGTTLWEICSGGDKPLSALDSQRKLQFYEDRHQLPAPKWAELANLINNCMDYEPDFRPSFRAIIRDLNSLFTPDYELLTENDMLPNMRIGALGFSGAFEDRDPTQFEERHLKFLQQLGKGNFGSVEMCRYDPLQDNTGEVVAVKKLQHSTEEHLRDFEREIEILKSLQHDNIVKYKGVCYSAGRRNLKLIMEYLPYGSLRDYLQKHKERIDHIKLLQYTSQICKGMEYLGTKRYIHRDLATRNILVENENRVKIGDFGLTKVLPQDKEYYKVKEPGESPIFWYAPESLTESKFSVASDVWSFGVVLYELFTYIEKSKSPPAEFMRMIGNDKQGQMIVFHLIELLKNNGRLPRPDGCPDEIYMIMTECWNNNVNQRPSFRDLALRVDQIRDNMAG
# Method in brief: as §1
# [3] = molecular target: JAK3 (Homo sapiens (Human), UniProt P52333); assay: Biochemical JAK kinase assay (LanthaScreen), JAK3; conditions: read-out: JAK3 pKi (converted)
# Chain of JAK3 (P52333 whole entry): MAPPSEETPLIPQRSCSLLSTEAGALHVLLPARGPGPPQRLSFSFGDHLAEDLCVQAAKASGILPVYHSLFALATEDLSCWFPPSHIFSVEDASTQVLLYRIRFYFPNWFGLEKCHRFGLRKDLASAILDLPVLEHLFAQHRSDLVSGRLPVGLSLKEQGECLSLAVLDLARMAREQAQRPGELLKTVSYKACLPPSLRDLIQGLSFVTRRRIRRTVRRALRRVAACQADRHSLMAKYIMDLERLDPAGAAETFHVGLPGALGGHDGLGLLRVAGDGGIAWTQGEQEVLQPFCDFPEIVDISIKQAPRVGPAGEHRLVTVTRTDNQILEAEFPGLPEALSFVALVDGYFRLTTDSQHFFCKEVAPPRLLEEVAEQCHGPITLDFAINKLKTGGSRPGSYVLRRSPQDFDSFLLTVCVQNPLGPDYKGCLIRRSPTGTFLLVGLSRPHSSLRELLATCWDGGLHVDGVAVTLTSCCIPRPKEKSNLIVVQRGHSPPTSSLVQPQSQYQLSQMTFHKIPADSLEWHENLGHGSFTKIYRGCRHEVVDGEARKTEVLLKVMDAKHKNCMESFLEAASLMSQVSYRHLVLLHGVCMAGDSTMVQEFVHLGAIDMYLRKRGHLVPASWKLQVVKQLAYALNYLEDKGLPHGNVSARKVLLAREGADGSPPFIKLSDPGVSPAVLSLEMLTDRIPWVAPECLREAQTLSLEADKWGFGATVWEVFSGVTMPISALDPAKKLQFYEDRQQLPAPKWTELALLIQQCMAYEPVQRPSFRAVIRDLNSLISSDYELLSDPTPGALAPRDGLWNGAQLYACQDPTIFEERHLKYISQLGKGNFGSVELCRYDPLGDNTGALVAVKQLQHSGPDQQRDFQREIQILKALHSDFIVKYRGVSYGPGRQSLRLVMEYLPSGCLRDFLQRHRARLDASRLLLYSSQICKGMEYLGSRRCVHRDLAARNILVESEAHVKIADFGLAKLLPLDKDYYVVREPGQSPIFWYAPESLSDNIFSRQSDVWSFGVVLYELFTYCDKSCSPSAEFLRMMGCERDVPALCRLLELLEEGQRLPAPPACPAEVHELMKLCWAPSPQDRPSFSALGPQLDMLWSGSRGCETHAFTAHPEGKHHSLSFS
# Protocol: (§2) A panel of four LanthaScreen JAK biochemical assays (JAK1, 2, 3 and Tyk2) were carried in a common kinase reaction buffer (50 mM HEPES, pH 7.5, 0.01% Brij-35, 10 mM MgCl2, and 1 mM EGTA). Recombinant GST-tagged JAK enzymes and a GFP-tagged STAT1 peptide substrate were obtained from Life Technologies.
# (§3) Serially diluted compounds were pre-incubated with each of the four JAK enzymes and the substrate in white 384-well microplates (Corning) at ambient temperature for 1 h. ATP was subsequently added to initiate the kinase reactions in 10 μL total volume, with 1% DMSO. The final enzyme concentrations for JAK1, 2, 3 and Tyk2 are 4.2 nM, 0.1 nM, 1 nM, and 0.25 nM respectively; the corresponding Km ATP concentrations used are 25 μM, 3 μM, 1.6 μM, and 10 μM; while the substrate concentration is 200 nM for all four assays. Kinase reactions were allowed to proceed for 1 hour at ambient temperature before a 10 μL preparation of EDTA (10 mM final concentration) and Tb-anti-pSTAT1 (pTyr701) antibody (Life Technologies, 2 nM final concentration) in TR-FRET dilution buffer (Life Technologies) was added. The plates were allowed to incubate at ambient temperature for 1 h before being read on the EnVision reader (Perkin Elmer). Emission ratio signals (520 nm/495 nm) were recorded and utilized to calculate the percent inhibition values based on DMSO and background controls.
# (§4) For dose-response analysis, percent inhibition data were plotted vs. compound concentrations, and IC50 values were determined from a 4-parameter robust fit model with the Prism software (GraphPad Software). Results were expressed as pIC50 (negative logarithm of IC50) and subsequently converted to pKi (negative logarithm of dissociation constant, Ki) using the Cheng-Prusoff equation.
# (§5) Test compounds having a lower Ki value or higher pKi value in the four JAK assays show greater inhibition of JAK activity.
# [4] = molecular target: TYK2 (Homo sapiens (Human), UniProt P29597); assay: Biochemical JAK kinase assay (LanthaScreen), Tyk2; conditions: read-out: Tyk2 pKi (converted)
# Chain of TYK2 (P29597 whole entry): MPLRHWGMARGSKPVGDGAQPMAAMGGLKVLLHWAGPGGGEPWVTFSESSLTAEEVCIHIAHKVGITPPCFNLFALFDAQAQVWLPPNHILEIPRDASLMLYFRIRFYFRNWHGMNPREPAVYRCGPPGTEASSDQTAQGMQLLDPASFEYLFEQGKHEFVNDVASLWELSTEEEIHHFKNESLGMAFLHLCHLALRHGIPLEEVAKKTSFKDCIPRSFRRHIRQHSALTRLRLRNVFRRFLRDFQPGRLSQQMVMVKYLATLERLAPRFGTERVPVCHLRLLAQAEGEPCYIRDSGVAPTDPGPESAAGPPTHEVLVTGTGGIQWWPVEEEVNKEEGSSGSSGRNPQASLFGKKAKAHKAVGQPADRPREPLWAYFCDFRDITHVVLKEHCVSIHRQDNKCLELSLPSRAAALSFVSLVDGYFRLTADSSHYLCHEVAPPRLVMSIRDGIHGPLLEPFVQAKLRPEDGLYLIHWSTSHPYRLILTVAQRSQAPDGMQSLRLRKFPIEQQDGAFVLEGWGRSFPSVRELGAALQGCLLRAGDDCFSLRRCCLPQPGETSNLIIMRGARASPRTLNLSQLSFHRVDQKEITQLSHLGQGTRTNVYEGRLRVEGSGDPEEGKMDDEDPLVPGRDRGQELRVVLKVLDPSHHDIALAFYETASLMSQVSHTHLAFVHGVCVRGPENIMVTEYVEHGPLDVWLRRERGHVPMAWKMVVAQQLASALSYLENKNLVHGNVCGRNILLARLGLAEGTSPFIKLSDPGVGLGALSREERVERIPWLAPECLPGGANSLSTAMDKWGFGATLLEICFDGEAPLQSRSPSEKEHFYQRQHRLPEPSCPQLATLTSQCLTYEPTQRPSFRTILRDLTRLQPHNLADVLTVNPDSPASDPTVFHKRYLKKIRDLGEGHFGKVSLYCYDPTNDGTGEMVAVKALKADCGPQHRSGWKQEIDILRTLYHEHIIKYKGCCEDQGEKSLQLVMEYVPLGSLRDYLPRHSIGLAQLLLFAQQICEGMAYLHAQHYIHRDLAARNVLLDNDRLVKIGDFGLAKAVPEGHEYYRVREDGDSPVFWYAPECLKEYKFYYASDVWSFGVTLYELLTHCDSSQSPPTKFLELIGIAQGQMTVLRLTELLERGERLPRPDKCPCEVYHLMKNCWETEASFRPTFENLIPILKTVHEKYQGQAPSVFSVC
# Protocol: as §2, §3, §4, §5
# [5] = test system: IL-13 induced STAT6 phosphorylation in BEAS-2B human lung epithelial cells; assay: Cellular JAKI potency assay (BEAS-2B); format: cell-based; conditions: Homo sapiens, BEAS-2B, BEAS-2B cells, read-out: BEAS2B pIC50 (converted)
# Method in brief: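 BEAS-2B cells were preincubated with compound (0.1% DMSO) in HBSS/HEPES/BSA for 1 h at 37 °C, then stimulated with IL-13 (80 ng/mL before addition) for 30 min. After lysis, pSTAT6 (Tyr641) was quantified by AlphaLISA SureFire; IC50 from a 4-parameter fit of percent inhibition, reported as pIC50.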
# [6] = Pharmacokinetics in plasma and lung in mouse after oral aspiration administration; format: in vivo; conditions: male CD1 mice; for Lung Tissue AUC(0-24) / AUC(0-t): 0.2 mg/mL, two 25 μL increments; for Lung Tissue:Plasma AUC ratio: lung AUC to plasma AUC; for AUC(0-t): mouse, inhaled or intranasal, 0.01 mg/mouse, plasma, read-out: Plasma AUC(0-24)
# Protocol: Plasma and lung concentrations of test compounds were quantified and pharmacokinetic parameters were calculated in the following manner. Male CD1 mice from Charles River Laboratories were used in the pharmacokinetic studies. Test compounds were individually formulated in 20% propylene glycol in pH 4 citrate buffer at a concentration of 0.2 mg/mL. Test compounds were administered in two, 25 μL increments introduced into the trachea of each mouse by oral aspiration using a calibrated pipette once the animal was anesthetized using isoflurane. Blood samples were collected as terminal collections via cardiac puncture at 0.167, 1, 4, 8, and 24 hr post-dosing. Following […] with CO2, a direct cardiac puncture was performed while avoiding puncturing the lung and blood was immediately transferred into K2EDTA tubes and placed on wet ice. Blood samples were centrifuged (Eppendorf centrifuge, 5804R) for 4 minutes at approximately 12,000 rpm at 4° C. to collect plasma. Intact lungs were also excised from these mice using the same timepoints (0.167, 1, 4, 8, and 24 hr). Lungs were washed with sterile water to remove any blood residue and were patted dry, weighed, and homogenized in 0.1% formic acid in water at a dilution of 1:3 (lung:water, weight/volume). Plasma and lung concentrations of test compounds were determined by LC-MS/MS analysis against analytical standards constructed into a standard curve in the test matrix. The pharmacokinetic parameters of test compounds were determined by non-compartmental analysis. For concentrations below the limit of quantification, zero was used for mean calculations. Mean values were not reported if more than 50% of the samples were below the limit of quantification at a timepoint, or if more than 50% of a calculated pharmacokinetic parameter was not reportable. The area under the concentration-time curve extrapolated to infinity (AUC(0-inf)) was calculated as follows: AUC(0-inf)=AUC(0-t)+Clast/k, where AUC(0-t) is the area under the concentration-time curve from the time of dosing to the last measurable concentration calculated by the linear trapezoidal rule, Clast is the last measurable concentration, and k is the first order rate constant associated with the terminal elimination phase, estimated by linear regression of time versus log concentration. The lung-to-plasma AUC ratio was determined as the ratio of the lung AUC(0-inf) in μg*hr/g to the plasma AUC(0-inf) in μg*hr/mL.
# Chain of JAK1 (P23458 whole entry): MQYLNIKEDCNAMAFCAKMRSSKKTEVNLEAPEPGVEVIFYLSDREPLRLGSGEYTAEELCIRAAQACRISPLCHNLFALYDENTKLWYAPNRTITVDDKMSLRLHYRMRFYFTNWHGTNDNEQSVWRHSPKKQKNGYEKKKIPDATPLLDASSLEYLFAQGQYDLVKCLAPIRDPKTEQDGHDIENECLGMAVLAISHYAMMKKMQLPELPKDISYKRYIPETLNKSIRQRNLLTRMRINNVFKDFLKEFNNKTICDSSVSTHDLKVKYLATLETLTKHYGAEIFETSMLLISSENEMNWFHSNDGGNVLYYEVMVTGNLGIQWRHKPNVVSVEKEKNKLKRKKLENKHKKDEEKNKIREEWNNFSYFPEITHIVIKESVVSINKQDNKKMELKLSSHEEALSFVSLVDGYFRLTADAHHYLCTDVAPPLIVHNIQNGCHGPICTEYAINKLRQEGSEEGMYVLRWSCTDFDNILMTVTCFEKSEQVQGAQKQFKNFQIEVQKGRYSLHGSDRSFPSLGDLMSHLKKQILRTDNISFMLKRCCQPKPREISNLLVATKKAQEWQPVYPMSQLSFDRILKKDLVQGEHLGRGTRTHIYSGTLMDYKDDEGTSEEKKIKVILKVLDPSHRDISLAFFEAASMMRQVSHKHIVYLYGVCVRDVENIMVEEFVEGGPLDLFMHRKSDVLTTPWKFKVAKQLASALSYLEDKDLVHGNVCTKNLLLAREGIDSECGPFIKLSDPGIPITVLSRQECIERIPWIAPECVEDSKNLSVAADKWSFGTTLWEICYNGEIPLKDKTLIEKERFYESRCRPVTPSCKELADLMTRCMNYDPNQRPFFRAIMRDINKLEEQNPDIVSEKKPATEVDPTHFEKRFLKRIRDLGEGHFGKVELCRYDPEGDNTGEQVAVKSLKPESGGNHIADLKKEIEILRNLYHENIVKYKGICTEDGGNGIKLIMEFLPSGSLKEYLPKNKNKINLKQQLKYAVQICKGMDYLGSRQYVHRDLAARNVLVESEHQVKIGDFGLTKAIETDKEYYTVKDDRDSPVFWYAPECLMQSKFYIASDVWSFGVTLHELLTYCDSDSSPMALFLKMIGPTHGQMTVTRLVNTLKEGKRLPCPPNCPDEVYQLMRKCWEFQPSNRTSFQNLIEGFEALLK
Structure (SMILES),Ki [1] [nM],Ki [2] [nM],Ki [3] [nM],Ki [4] [nM],IC50 [5] [nM],JAK1 pKi [1],JAK2 pKi [2],Lung Tissue AUC(0-24) [6],Lung Tissue:Plasma AUC ratio [6],AUC(0-t) [6] [ng·h/mL]
CCc1cc(O)ccc1-c1ccc2c(-c3nc(C4=CCN(C5CN(C)C5)CC4)c[nH]3)n[nH]c2c1F [Example 186],0.1 to 1,0.1 to 1,0.1 to 1,1 to 10,3.16 to 10,,,,,
CCc1cc(O)ccc1-c1ccc2c(-c3nc(C4=C(C)CNCC4)c[nH]3)n[nH]c2c1 [Example 224],0.1 to 1,0.1 to 1,0.1 to 1,1 to 10,3.16 to 10,,,,,
CCc1cc(O)ccc1-c1ccc2c(-c3nc(C4=CCN(CCO)CC4)c[nH]3)n[nH]c2c1 [Example 33],,,0.1 to 1,0.1 to 1,3.16 to 10,A (A represents a pKi value ≥10 (Ki≤0.1 nM)),A (A represents a pKi value ≥10 (Ki≤0.1 nM)),,,
CCc1cc(O)ccc1-c1ccc2c(-c3nc(C4=C[C@H](CC(=O)N(C)C)NC4)c[nH]3)n[nH]c2c1F [Example 255],,,,,10 to 31.6,A (A represents a pKi value ≥10 (Ki≤0.1 nM)),A (A represents a pKi value ≥10 (Ki≤0.1 nM)),"A (For the Lung Tissue AUC(0-24), A denotes a value between 100 and 200)",D (D denotes a ratio between 50 and 100),1000 to 1500
CCCN1CC=C(c2c[nH]c(-c3n[nH]c4c(F)c(-c5ccc(O)cc5CC)ccc34)n2)CC1 [Example 24],0.1 to 1,,0.1 to 1,1 to 10,3.16 to 10,,A (A represents a pKi value ≥10 (Ki≤0.1 nM)),,,
CCc1cc(O)ccc1-c1ccc2c(-c3nc(C4=CCN(CC(C)C)CC4)c[nH]3)n[nH]c2c1F [Example 25],0.1 to 1,0.1 to 1,0.1 to 1,10 to 100,10 to 31.6,,,,,
CCc1cc(O)ccc1-c1ccc2c(-c3nc(C4=CCN(C5COC5)CC4)c[nH]3)n[nH]c2c1 [Example 57],0.1 to 1,0.1 to 1,0.1 to 1,1 to 10,10 to 31.6,,,,,
CCc1cc(O)ccc1-c1ccc2c(-c3nc(C4=CCN(CCN5CCOCC5)C4)c[nH]3)n[nH]c2c1F [Example 206],0.1 to 1,,0.1 to 1,1 to 10,10 to 31.6,,A (A represents a pKi value ≥10 (Ki≤0.1 nM)),,,
CCc1cc(O)ccc1-c1ccc2c(-c3nc(C4=CCN(C(C)CN)CC4)c[nH]3)n[nH]c2c1F (centres unmarked) [Example 213],0.1 to 1,0.1 to 1,0.1 to 1,10 to 100,100 to 316,,,,,
CCc1cc(O)ccc1-c1ccc2c(-c3nc(C4=CCN(CCNS(C)(=O)=O)CC4)c[nH]3)n[nH]c2c1F [Example 106],0.1 to 1,,,,10 to 31.6,,A (A represents a pKi value ≥10 (Ki≤0.1 nM)),C (C denotes a value between 9 and 50),C (C denotes a ratio between 100 and 200),< 500
CCc1cc(O)ccc1-c1ccc2c(-c3nc(C4=C(C)CCNC4)c[nH]3)n[nH]c2c1F [Example 236],0.1 to 1,0.1 to 1,,,10 to 31.6,,,B (B denotes a value between 50 and 100),C (C denotes a ratio between 100 and 200),500 to 1000
CCc1cc(O)ccc1-c1ccc2c(-c3nc(C4=C[C@@H](CO)NC4)c[nH]3)n[nH]c2c1F [Example 245],0.1 to 1,0.1 to 1,0.1 to 1,10 to 100,31.6 to 100,,,,,
CCc1cc(O)ccc1-c1ccc2c(-c3nc(C4=CCCN(CCSC)C4)c[nH]3)n[nH]c2c1F [Example 90],0.1 to 1,0.1 to 1,0.1 to 1,10 to 100,31.6 to 100,,,,,
CCc1cc(O)ccc1-c1ccc2c(-c3nc(C4=CCN(C(=O)CN)CC4)c[nH]3)n[nH]c2c1F [Example 157],0.1 to 1,,0.1 to 1,1 to 10,31.6 to 100,,A (A represents a pKi value ≥10 (Ki≤0.1 nM)),,,
CCc1cc(O)ccc1-c1ccc2c(-c3nc(C4=CCN(C5CCNC5)C4)c[nH]3)n[nH]c2c1F (centres unmarked) [Example 218],,,0.1 to 1,1 to 10,31.6 to 100,A (A represents a pKi value ≥10 (Ki≤0.1 nM)),A (A represents a pKi value ≥10 (Ki≤0.1 nM)),,,
CCc1cc(O)ccc1-c1ccc2c(-c3nc(C4=C[C@H](COC)NC4)c[nH]3)n[nH]c2c1 [Example 241],0.1 to 1,0.1 to 1,,,3.16 to 10,,,C (C denotes a value between 9 and 50),D (D denotes a ratio between 50 and 100),500 to 1000
CCc1cc(O)ccc1-c1ccc2c(-c3nc(C4=CCN(C5CCNC5=O)C4)c[nH]3)n[nH]c2c1 (centres unmarked) [Example 94],0.1 to 1,,,,10 to 31.6,,A (A represents a pKi value ≥10 (Ki≤0.1 nM)),C (C denotes a value between 9 and 50),E (E denotes a ratio between 30 and 50),< 500
"CCc1cc(O)ccc1-c1ccc2c(-c3nc(C4=CCN(C(C)CO)CC4)c[nH]3)n[nH]c2c1F (centres unmarked) [Compound 13, 3-ethyl-4-(7-fluoro-3-(4-(1-(1-hydroxypropan-2-yl)-1,2,3,6-tetrahydropyridin-4-yl)-1H-imidazol-2-yl)-1H-indazol-6-yl)phenol]",0.1 to 1,,,,3.16 to 10,,,B (B denotes a value between 50 and 100),C (C denotes a ratio between 100 and 200),500 to 1000
CCc1cc(O)ccc1-c1ccc2c(-c3nc(C4=CCN(CCC(C)(C)O)C4)c[nH]3)n[nH]c2c1 [Example 51],,,,,3.16 to 10,A (A represents a pKi value ≥10 (Ki≤0.1 nM)),A (A represents a pKi value ≥10 (Ki≤0.1 nM)),C (C denotes a value between 9 and 50),C (C denotes a ratio between 100 and 200),< 500
CCc1cc(O)ccc1-c1ccc2c(-c3nc(C4=CCN(C[C@H](C)CO)CC4)c[nH]3)n[nH]c2c1F [Example 38],,0.1 to 1,,,10 to 31.6,A (A represents a pKi value ≥10 (Ki≤0.1 nM)),,C (C denotes a value between 9 and 50),D (D denotes a ratio between 50 and 100),< 500
